Source: BindingDB's records for patent WO2022104348 (Janssen Pharmaceutica, 2022)

Target: Mitogen-activated protein kinase kinase kinase 14 (Homo sapiens, UniProt Q99558)
Assay: Inhibition of auto-phosphorylation of recombinant human NF-kappaB-inducing kinase (NIK/MAP3K14) activity
Procedure: NIK/MAP3K14 auto-phosphorylation activity was measured using the AlphaScreen (ascreen) format (Perkin Elmer). All compound6 tested were dissolved in dimethyl sulfoxide (DMSO) and further dilutions were made in assay buffer. The final DMSO concentration was 0.7% (v/v) in assays. The assay buffer was 50 mM Tris pH 7.5 containing 1 mM EGTA (ethylene glycol tetraacetic acid), 1 mM DTT (dithiothreitol), 0.1 mM NasVCO4, 5 mM MgCE, and 0.01 % Tween 20. The assays were carried out in 384 well Proxiplates (Perkin Elmer). The incubations consisted of the compound, […] Adenosine-5'-triphosphate (ATP), and 1 nM NIK/MAP3K14. Incubations were initiated by the addition of GST-tagged NIK/MAP3K14 enzyme, carried out for 2 h at 25 °C and terminated by addition of stop buffer containing anti-phospho-IKK Ser176/180 antibody. Protein A Acceptor and Glutathione-Donor bead6 were added before reading using an EnVision Multilabel Plate Reader (Perkin Elmer). The signal obtained in the wells was normalized using high (full enzyme activity, 0.7% DMSO) and low controls (no enzyme activity, 0.7% DMSO, no ATP). IC50 s were determined by fitting a sigmoidal curve to % inhibition of control versus Log compound concentration.

Mitogen-activated protein kinase kinase kinase 14, sequence (Q99558 whole entry): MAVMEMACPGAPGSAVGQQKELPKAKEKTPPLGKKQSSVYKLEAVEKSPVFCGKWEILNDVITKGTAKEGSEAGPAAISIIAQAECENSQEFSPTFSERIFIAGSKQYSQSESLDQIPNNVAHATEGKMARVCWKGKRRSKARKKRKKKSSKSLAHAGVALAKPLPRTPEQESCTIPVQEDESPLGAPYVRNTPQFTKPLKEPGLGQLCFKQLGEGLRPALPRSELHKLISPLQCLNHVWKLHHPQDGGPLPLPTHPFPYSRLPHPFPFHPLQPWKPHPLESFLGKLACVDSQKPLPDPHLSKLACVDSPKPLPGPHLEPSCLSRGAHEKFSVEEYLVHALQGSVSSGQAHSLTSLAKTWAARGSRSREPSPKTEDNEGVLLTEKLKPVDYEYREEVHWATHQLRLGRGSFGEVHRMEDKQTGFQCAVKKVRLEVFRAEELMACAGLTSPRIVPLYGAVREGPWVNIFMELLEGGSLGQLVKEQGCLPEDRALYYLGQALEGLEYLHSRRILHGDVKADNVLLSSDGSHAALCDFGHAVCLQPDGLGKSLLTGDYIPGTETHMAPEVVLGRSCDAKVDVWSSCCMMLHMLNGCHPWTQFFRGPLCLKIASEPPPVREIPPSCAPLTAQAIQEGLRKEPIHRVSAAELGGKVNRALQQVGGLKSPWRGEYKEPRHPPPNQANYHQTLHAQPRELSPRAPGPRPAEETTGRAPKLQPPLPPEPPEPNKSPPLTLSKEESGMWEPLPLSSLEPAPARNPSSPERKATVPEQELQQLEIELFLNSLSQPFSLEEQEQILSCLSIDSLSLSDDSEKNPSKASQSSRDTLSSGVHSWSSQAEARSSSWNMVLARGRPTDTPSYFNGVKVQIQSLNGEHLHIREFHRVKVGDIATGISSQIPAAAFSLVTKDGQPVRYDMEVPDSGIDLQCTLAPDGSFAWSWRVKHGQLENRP

| SMILES | IC50 [nM] |
| --- | --- |
| CN1CC[C@@](O)(c2cccc(-n3cnc(-c4c[nH]c5ncccc45)n3)c2)C1=O [WO2022104348, Example 121] | < 100 |
| CN1CC[C@](O)(c2cccc(-c3csc(-c4c[nH]c5ncccc45)n3)c2)C1=O [WO2022104348, Example 39] | > 500 |
| CN1C(=O)[C@](O)(c2cccc(-c3csc(-c4c[nH]c5ncccc45)n3)c2)c2ncccc21 [WO2022104348, Example 92] | < 100 |
| O[C@@]1(c2cccc(-c3csc(-c4c[nH]c5ncccc45)n3)c2)CCc2cccnc21 [WO2022104348, Example 2] | < 100 |
| O[C@@H]1C[C@](O)(c2cccc(-c3csc(-c4c[nH]c5ncccc45)n3)c2)c2ncccc21 [WO2022104348, Example 104] | > 500 |
| O[C@H]1C[C@@](O)(c2cccc(-c3csc(-c4c[nH]c5ncccc45)n3)c2)c2ncccc21 [WO2022104348, Example 103] | > 500 |
| O[C@]1(c2cccc(-c3csc(-c4c[nH]c5ncccc45)n3)c2)CCc2cccnc21 [WO2022104348, Example 1] | > 500 |
| CN1CC[C@@](O)(c2cccc(-c3csc(-c4c[nH]c5ncc(F)c(F)c45)n3)c2)C1=O [WO2022104348, Example 94] | < 100 |
| O[C@@]1(c2cccc(-c3csc(-c4c[nH]c5ncncc45)n3)c2)CCc2cccnc21 [WO2022104348, Example 5] | < 100 |
| CN1CC[C@@](O)(c2cccc(-c3csc(-c4c[nH]c5ncccc45)n3)c2)C1=O [WO2022104348, Example 40] | < 100 |
| CN1CC[C@@](O)(c2cccc(-c3nc(-c4ccnc5[nH]ccc45)cs3)c2)C1=O [WO2022104348, Example 127] | < 100 |
| CN1CC[C@@](O)(c2cccc(-n3ncc(-c4c[nH]c5ncccc45)n3)c2)C1=O [WO2022104348, Example 109] | < 100 |
| Cn1ccnc1[C@@](C)(O)c1cccc(-c2csc(-c3c[nH]c4ncccc34)n2)c1 [WO2022104348, Example 79] | > 500 |
| CN1CC[C@@](O)(c2cccc(-c3coc(-c4c[nH]c5ncccc45)n3)c2)C1=O [WO2022104348, Example 116] | < 100 |
| O[C@@]1(c2cccc(-c3csc(-c4c[nH]c5ncc(F)c(F)c45)n3)c2)CCn2ccnc21 [WO2022104348, Example 96] | < 100 |
| CN1CC[C@@](O)(c2cccc(-c3ccc(-c4c[nH]c5ncccc45)o3)c2)C1=O [WO2022104348, Example 114] | < 100 |
| Cc1cnc2c(-c3nc(-c4cccc([C@]5(O)CCn6ccnc65)c4)cs3)c[nH]c2n1 [WO2022104348, Example 83] | < 100 |
| CC1(C)Cc2cccnc2[C@@]1(O)c1cccc(-c2csc(-c3c[nH]c4ncccc34)n2)c1 [WO2022104348, Example 35] | > 500 |
| CN1CC[C@](O)(c2cccc(-c3cnc(-c4c[nH]c5ncccc45)s3)c2)C1=O [WO2022104348, Example 4] | > 500 |
| CN1CC[C@@](O)(c2cccc(-c3nc(-c4c[nH]c5ncccc45)sc3CO)c2)C1=O [WO2022104348, Example 50] | < 100 |
| CN1CC[C@@](O)(c2cccc(-c3csc(-c4c[nH]c5ncncc45)n3)c2)C1=O [WO2022104348, Example 53] | < 100 |

| SMILES | IC50 [nM] |
| --- | --- |
| O[C@@]1(c2cccc(-c3csc(-c4c[nH]c5ncccc45)n3)c2)COc2cccnc21 [WO2022104348, Example 85] | > 500 |
| Cc1ccc([C@]2(O)CCN(C)C2=O)cc1-c1csc(-c2c[nH]c3nccnc23)n1 [WO2022104348, Example 67] | < 100 |
| O[C@@]1(c2cccc(-c3csc(-c4c[nH]c5nnccc45)n3)c2)CCn2ccnc21 [WO2022104348, Example 88] | < 100 |
| C[C@@](O)(c1cccc(-c2csc(-c3c[nH]c4nccnc34)n2)c1)c1ncc[nH]1 [WO2022104348, Example 77] | > 500 |
| O[C@@]1(c2cccc(-c3csc(-c4c[nH]c5ncc(C(F)(F)F)cc45)n3)c2)Cc2nccn2C1 [WO2022104348, Example 25] | < 100 |
| O=C1Nc2cccnc2[C@@]1(O)c1cccc(-c2csc(-c3c[nH]c4ncccc34)n2)c1 [WO2022104348, Example 90] | > 500 |
| O[C@@]1(c2cccc(-c3csc(-c4c[nH]c5ncccc45)n3)c2)CCc2scnc21 [WO2022104348, Example 32] | < 100 |
| C[C@@](O)(c1cccc(-c2csc(-c3c[nH]c4ncccc34)n2)c1)c1ncc[nH]1 [WO2022104348, Example 80] | > 500 |
| O[C@@]1(c2cccc(-c3csc(-c4c[nH]c5nccnc45)n3)c2)COc2cccnc21 [WO2022104348, Example 86] | > 500 |
| O[C@@]1(c2cccc(-c3csc(-c4c[nH]c5ncccc45)n3)c2)CCCn2ccnc21 [WO2022104348, Example 38] | < 100 |
| Cc1cnc2[nH]cc(-c3nc(-c4cccc([C@]5(O)CCN(C)C5=O)c4)cs3)c2c1 [WO2022104348, Example 7] | < 100 |
| CN1CCC[C@](O)(c2cccc(-c3csc(-c4c[nH]c5nccnc45)n3)c2)C1=O [WO2022104348, Example 55] | > 500 |
| O[C@]1(c2cccc(-c3csc(-c4c[nH]c5ncccc45)n3)c2)CCCn2ccnc21 [WO2022104348, Example 37] | > 500 |
| O[C@@]1(c2cccc(-c3csc(-c4c[nH]c5ncccc45)n3)c2)C=Cc2cccnc21 [WO2022104348, Example 33] | < 100 |
| O[C@]1(c2cccc(-c3csc(-c4c[nH]c5ncccc45)n3)c2)Cc2nccn2C1 [WO2022104348, Example 10] | < 100 |
| CN1C[C@@](O)(c2cccc(-c3csc(-c4c[nH]c5nccnc45)n3)c2)C1=O [WO2022104348, Example 45] | > 500 |
| O[C@]1(c2cccc(-c3csc(-c4c[nH]c5ncccc45)n3)c2)C=Cc2cccnc21 [WO2022104348, Example 34] | > 500 |
| CN1CC[C@@](O)(c2cccc(-c3csc(-c4n[nH]c5ncccc45)n3)c2)C1=O [WO2022104348, Example 100] | > 500 |
| C[C@@]1(O)C[C@](O)(c2cccc(-c3csc(-c4c[nH]c5ncccc45)n3)c2)c2ncccc21 [WO2022104348, Example 107] | > 500 |
| O=C1N(CC(F)(F)F)CC[C@]1(O)c1cccc(-c2csc(-c3c[nH]c4nccnc34)n2)c1 [WO2022104348, Example 43] | > 500 |
| CN1CC[C@@](O)(c2cccc(-n3ccc(-c4c[nH]c5ncccc45)n3)c2)C1=O [WO2022104348, Example 122] | < 100 |

| SMILES | IC50 [nM] |
| --- | --- |
| CN1CC[C@@](O)(c2cccc(-n3cnc(-c4c[nH]c5ncccc45)c3)c2)C1=O [WO2022104348, Example 124] | > 500 |
| CN1CC[C@@](O)(c2cccc(-c3coc(-c4c[nH]c5ncccc45)c3)c2)C1=O [WO2022104348, Example 93] | < 100 |
| O[C@H]1C[C@](O)(c2cccc(-c3csc(-c4c[nH]c5ncccc45)n3)c2)c2ncccc21 [WO2022104348, Example 102] | > 500 |
| Cc1cc(-c2csc(-c3c[nH]c4nccnc34)n2)cc([C@]2(O)CCN(C)C2=O)c1 [WO2022104348, Example 68] | < 100 |
| Cc1ccnc2[nH]cc(-c3nc(-c4cccc([C@]5(O)CCn6ccnc65)c4)cs3)c12 [WO2022104348, Example 87] | < 100 |
| CN1CC[C@@](O)(c2cccc(-c3csc(-n4ccc5nc(N)ccc54)n3)c2)C1=O [WO2022104348, Example 112] | > 500 |
| O=C1Nc2cccnc2[C@]1(O)c1cccc(-c2csc(-c3c[nH]c4ncccc34)n2)c1 [WO2022104348, Example 89] | > 500 |
| O=C1N(CC(F)(F)F)CC[C@@]1(O)c1cccc(-c2csc(-c3c[nH]c4nccnc34)n2)c1 [WO2022104348, Example 44] | > 500 |
| C[C@]1(O)C[C@](O)(c2cccc(-c3csc(-c4c[nH]c5ncccc45)n3)c2)c2ncccc21 [WO2022104348, Example 105] | > 500 |
| O[C@@]1(c2cccc(-c3csc(-c4c[nH]c5ncc(Cl)cc45)n3)c2)Cc2nccn2C1 [WO2022104348, Example 27] | < 100 |
| Cc1sc(-c2c[nH]c3nccnc23)nc1-c1cccc([C@]2(O)CCN(C)C2=O)c1 [WO2022104348, Example 66] | < 100 |
| O[C@]1(c2cccc(-c3csc(-c4c[nH]c5nccnc45)n3)c2)OCc2cccnc21 [WO2022104348, Example 17] | < 100 |
| CN1CC[C@@](O)(c2cccc(-c3nc(-c4c[nH]c5ncccc45)sc3C#N)c2)C1=O [WO2022104348, Example 98] | > 500 |
| CN1CC[C@@](O)(c2cccc(-c3nc(-c4c[nH]c5ncccc45)sc3F)c2)C1=O [WO2022104348, Example 99] | < 100 |
| CN1CC[C@@](O)(c2cccc(-c3nc(-c4cccc5[nH]ncc45)cs3)c2)C1=O [WO2022104348, Example 131] | > 500 |
| C[C@](O)(c1cccc(-c2csc(-c3c[nH]c4nccnc34)n2)c1)c1ncc[nH]1 [WO2022104348, Example 78] | > 500 |
| Cc1c(-c2c[nH]c3ncccc23)n[nH]c1-c1cccc([C@]2(O)CCN(C)C2=O)c1 [WO2022104348, Example 119] | > 500 |
| CN1CC[C@@](O)(c2cccc(-c3csc(-c4c[nH]c5ncc(Cl)c(F)c45)n3)c2)C1=O [WO2022104348, Example 95] | < 100 |
| O[C@@]1(c2cccc(-c3csc(-c4c[nH]c5ncc(Cl)c(F)c45)n3)c2)CCn2ccnc21 [WO2022104348, Example 97] | < 100 |
